Where two headings read alike, the source gives them in different places.

This note sets out measurements from patent US11787785B2 (NOVARTIS AG, priority 2021, dated 2023).

Experiment [1] deals with T1, WIZ protein (HiBit-WIZ fusion protein) (Homo sapiens, UniProt O95785+Q96SW2).
T1 construct: expressed in transfected cells
The experiment is described as follows: Quantification of WIZ protein levels in HiBit tag fusion protein assay (WIZ HiBit assay in 293T cells). In kind it is cell-based. Further details: remaining activity / Dmax: dose or concentration left out as unconfirmed. An outline of the steps:
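HiBit-tagged WIZ (N-terminal tag, HSVTK promoter) stably expressed single-copy in 293T cells; 10-point 1:5 compound series, top 25 μM, ~18 h at 37 °C. Lytic HiBit/LgBit luminescence read; Amax = curve-fitted % WIZ-HiBit remaining at 25 μM, DMSO normalized to 100%.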

The subject of a further experiment is Fetal Hemoglobin (HbF). The experiment is described as follows: Small molecule HbF induction assay (mPB CD34+ cells erythroid differentiated, flow cytometry). It is filed as cell-based. To be noted: Homo sapiens, 168 h; for Emax: 7 days with compound, baseline DMSO approximately 30-40%, read-out: HbF Amax (highest percentage of cells staining positive for HbF in the fitted dose-response curve); for EC50: erythroid differentiated in presence of compound for 7 days, flow cytometry. On the procedure: Cryopreserved primary human CD34^+ hematopoietic stem and progenitor cells were obtained from AllCells, LLC. The CD34^+ cells were isolated from the peripheral blood of healthy donors after mobilization by administration of granulocyte colony-stimulating factor. Cells were differentiated ex vivo toward the erythroid lineage using a 2-phase culture method. In the first phase, cells were cultured in StemSpan™ Serum-Free Expansion Media (SFEM) ([…] Technologies Inc.) supplemented with rhSCF (50 ng/mL, Peprotech®, Inc.), rhIL-6 (50 ng/mL, Peprotech®, Inc.), rhIL-3 (50 ng/mL, Peprotech®, Inc.), and rhFlt3L (50 ng/mL, Peprotech®, Inc.), and 1× antibiotic-antimycotic (Life Technologies, Thermo Fisher Scientific) for 6 days at 37° C. with 5% CO2. During the second phase, cells were cultured in erythroid differentiation media at 5,000 cells/mL in the presence of compound for 7 days at 37° C. with 5% CO2. Erythroid Differentiation Media is comprised of IMDM (Life Technologies) supplemented with insulin (10 μg/mL, Sigma Aldrich), heparin (2 U/mL Sigma Aldrich), holo-transferrin (330 μg/mL, Sigma Aldrich), human serum AB (5%, Sigma Aldrich), hydrocortisone (1 μM, […] Technologies), rhSCF (100 ng/mL, Peprotech®, Inc.), rhIL-3 (5 ng/mL, Peprotech®, Inc.), rhEPO (3 U/mL, Peprotech®, Inc.), and 1× antibiotic-antimycotic. All compounds were dissolved and diluted into dimethylsulfoxide (DMSO) and were added to culture media for a final concentration of 0.3% DMSO for testing in a 7-point, 1:3 dilution series starting at 30 uM.
Staining and Flow Cytometry
For viability analysis, samples were washed and resuspended in phosphate-buffered saline (PBS) and stained with LIVE/DEAD™ Fixable Violet Dead Cell Stain Kit (Life Technologies, L34963) for 20 minutes. Cells were then washed again with PBS and resuspended in PBS supplemented with 2% fetal bovine serum (FBS), and 2 mM EDTA to prepare for cell surface marker analysis. Cells were labeled with allophycocyanin-conjugated CD235a (1:100, BD Biosciences, 551336) and Brilliant Violet-conjugated CD71 (1:100, BD Biosciences, 563767) antibodies for 20 minutes. For analysis of cytoplasmic Fetal Hemoglobin (HbF), cells were fixed and permeabilized using the Fixation (BioLegend®, 420801) and Permeabilization Wash (BioLegend®, 421002) Buffers according to the manufacturer's protocol. During the permeabilization step, cells were stained with phycoerythrin-conjugated or FITC-conjugated HbF-specific antibody (1:10-1:25, Invitrogen™, MHFH04-4) for 30 minutes. Stained cells were washed with phosphate-buffered saline before analysis on the FACSCanto™ II flow cytometer or LSRFortessa™ (BD Biosciences). Data analysis was performed with FIowJo™ Software (BD Biosciences).
HbF Induction Activity of Compounds (Table 2)
mPB CD34+ cells were expanded for 6 days, then erythroid differentiated in the presence of compound for 7 days. Cells were fixed, stained and analyzed by flow cytometry. […] HbF Amax=the highest percentage of cells staining positive for HbF (% HbF+ cells) in the fitted dose-response curve. The baseline % HbF+ cells for DMSO-treated cells is approximately 30-40%.

Setting [2] is: HEK-293T, 100 − Amax, at 25 uM; 293T cells; read-out: % degradation of WIZ (100 − Amax).
The mark [3] stands for this setting: HEK-293T, DMSO-normalized, curve-fitted percentage of WIZ-HiBit remaining at 25 uM; 293T cells; read-out: WIZ Amax.
[4] abbreviates: WIZ HiBit assay in 293T cells; 10-point, 5-fold dose response, highest concentration 25 μM, about 18 hours; read-out: WIZ AC50.
[5] abbreviates: HEK-293T, read-out: % degradation of WIZ (100 − Amax).

T1 sequence (O95785 whole entry, the tested form may be a part): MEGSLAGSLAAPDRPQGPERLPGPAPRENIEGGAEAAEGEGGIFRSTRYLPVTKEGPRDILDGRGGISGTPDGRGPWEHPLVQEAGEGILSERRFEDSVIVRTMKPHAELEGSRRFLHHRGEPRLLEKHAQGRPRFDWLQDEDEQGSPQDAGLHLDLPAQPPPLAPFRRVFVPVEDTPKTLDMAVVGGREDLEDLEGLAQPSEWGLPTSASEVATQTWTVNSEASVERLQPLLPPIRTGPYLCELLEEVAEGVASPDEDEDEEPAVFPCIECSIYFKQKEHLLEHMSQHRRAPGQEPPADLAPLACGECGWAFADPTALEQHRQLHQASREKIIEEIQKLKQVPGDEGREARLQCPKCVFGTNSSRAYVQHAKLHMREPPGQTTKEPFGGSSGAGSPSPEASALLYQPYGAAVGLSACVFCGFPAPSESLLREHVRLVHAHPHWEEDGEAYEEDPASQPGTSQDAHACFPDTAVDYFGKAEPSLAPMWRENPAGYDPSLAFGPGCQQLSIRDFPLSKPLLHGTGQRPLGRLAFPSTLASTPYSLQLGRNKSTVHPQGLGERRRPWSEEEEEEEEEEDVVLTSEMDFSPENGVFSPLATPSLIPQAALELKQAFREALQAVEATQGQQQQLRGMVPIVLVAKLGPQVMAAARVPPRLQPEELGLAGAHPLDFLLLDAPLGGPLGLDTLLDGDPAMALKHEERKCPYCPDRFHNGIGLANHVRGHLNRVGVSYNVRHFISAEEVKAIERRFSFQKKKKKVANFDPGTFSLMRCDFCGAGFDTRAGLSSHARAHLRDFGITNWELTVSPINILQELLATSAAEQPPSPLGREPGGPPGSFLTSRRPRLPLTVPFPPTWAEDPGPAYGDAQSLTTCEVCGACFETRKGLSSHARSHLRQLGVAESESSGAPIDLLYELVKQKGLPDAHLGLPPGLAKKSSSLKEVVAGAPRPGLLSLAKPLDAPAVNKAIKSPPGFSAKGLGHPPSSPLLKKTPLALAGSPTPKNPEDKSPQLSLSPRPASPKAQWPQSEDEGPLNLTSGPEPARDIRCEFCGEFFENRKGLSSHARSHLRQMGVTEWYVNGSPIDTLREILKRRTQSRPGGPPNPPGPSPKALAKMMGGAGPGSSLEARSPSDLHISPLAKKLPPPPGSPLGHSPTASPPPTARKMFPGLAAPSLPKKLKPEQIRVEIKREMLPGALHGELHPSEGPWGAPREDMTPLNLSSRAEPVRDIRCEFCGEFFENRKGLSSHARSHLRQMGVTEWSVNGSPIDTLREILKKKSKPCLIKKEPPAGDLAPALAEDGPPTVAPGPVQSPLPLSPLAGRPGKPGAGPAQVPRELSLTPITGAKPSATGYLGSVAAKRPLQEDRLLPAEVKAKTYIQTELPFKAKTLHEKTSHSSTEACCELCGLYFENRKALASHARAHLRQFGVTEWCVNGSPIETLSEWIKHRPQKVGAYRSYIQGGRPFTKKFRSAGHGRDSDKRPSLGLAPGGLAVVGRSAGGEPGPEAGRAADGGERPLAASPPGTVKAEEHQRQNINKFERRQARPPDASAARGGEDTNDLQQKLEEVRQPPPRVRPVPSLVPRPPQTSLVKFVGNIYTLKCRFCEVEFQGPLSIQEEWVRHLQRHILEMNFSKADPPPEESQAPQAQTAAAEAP
T1 sequence (Q96SW2 whole entry, the tested form may be a part): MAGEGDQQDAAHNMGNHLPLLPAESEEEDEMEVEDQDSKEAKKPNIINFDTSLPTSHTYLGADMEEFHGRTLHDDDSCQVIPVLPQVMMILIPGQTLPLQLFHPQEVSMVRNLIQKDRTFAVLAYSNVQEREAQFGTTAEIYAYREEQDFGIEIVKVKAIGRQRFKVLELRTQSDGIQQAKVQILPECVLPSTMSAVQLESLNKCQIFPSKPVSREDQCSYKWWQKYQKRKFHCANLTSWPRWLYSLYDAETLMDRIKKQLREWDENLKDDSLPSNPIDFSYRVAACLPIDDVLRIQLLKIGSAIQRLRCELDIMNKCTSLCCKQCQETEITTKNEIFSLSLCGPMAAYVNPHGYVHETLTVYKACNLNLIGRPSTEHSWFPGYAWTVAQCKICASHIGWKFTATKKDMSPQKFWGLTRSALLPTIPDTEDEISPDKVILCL
T1 sequence (Q16531 whole entry partner, the tested form may be a part): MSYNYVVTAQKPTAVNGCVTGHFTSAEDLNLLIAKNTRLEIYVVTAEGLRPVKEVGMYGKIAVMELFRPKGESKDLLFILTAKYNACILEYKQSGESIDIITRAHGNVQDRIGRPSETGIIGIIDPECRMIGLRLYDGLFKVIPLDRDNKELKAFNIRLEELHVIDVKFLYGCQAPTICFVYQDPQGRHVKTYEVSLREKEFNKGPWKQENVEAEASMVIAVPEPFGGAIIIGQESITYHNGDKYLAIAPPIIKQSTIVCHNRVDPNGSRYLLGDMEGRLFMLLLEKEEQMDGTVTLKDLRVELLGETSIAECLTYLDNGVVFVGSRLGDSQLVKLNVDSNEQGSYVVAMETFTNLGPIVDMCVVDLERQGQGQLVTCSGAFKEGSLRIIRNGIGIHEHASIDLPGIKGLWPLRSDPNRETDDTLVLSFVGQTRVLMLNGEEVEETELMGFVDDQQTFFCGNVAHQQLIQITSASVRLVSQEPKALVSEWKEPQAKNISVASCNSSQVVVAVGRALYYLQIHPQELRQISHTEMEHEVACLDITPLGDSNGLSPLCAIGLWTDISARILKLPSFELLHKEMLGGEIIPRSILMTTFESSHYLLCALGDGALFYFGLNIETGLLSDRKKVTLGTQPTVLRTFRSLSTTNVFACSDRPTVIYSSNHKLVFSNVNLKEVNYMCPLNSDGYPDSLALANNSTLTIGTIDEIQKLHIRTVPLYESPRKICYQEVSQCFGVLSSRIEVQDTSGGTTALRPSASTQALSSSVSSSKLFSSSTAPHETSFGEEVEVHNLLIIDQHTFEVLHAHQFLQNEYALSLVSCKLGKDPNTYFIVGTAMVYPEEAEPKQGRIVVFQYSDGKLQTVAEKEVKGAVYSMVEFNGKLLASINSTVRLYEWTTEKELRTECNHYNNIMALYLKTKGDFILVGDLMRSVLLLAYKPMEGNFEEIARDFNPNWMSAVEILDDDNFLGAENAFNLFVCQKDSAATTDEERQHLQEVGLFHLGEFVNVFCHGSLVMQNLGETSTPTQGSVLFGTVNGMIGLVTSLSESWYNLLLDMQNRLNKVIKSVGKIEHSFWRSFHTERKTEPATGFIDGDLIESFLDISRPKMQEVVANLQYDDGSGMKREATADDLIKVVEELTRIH

Regarding `CC(C)CN1CC[C@@H](Cc2ccn3ncc(N4CCC(=O)NC4=O)c3c2)C[C@@H]1C` [Example 145], in experiment [1] (setting [2]), the Dmax at 25 µM came to 84%. Also, the remaining activity at 25 µM in experiment [1] (setting [3]) was determined as 16%. Besides, the DC50 in experiment [1] (setting [4]) was 25 nM. For the same compound, in the experiment on Fetal Hemoglobin (HbF), the Emax stood at 76% and the EC50 is 30 nM.
In the case of `CO[C@H]1CC[C@H](CN2CCN(Cc3ccn4ncc(N5CCC(=O)NC5=O)c4c3)CC2)CC1` [Example 179, 1-(5-((4-(((1r,4r)-4-methoxycyclohexyl)methyl)piperazin-1-yl)methyl)pyrazolo[1,5-a]pyridin-3-yl)dihydropyrimidine-2,4(1H,3H)-dione], the Dmax at 25 µM in experiment [1] (setting [2]) worked out at 82%. The remaining activity at 25 µM in experiment [1] (setting [3]) amounted to 18%. Also, in experiment [1] (setting [4]), the DC50 was determined as 49 nM. In the experiment on Fetal Hemoglobin (HbF), the Emax turned out to be 79% and the EC50 stood at 74 nM.
As to `O=C1CCN(c2cnn3ccc(CN4CCN(CC5CCCCC5)CC4)cc23)C(=O)N1` [Example 156, 1-(5-((4-(cyclohexylmethyl)piperazin-1-yl)methyl)pyrazolo[1,5-a]pyridin-3-yl)dihydropyrimidine-2,4(1H,3H)-dione], in experiment [1] (setting [5]), the Dmax came to 86%. The remaining activity in experiment [1] (HEK-293T, read-out: WIZ Amax) turned out to be 14%. Besides, the DC50 in experiment [1] (setting [4]) was determined as 23 nM. In the experiment with Fetal Hemoglobin (HbF), the Emax was 81% and the EC50 amounted to 12 nM.
Take `CC(C)CN1CCN(Cc2ccn3ncc(N4CCC(=O)NC4=O)c3c2)C[C@@H]1C` [Example 203, (S)-1-(5-((4-isobutyl-3-methylpiperazin-1-yl)methyl)pyrazolo[1,5-a]pyridin-3-yl)dihydropyrimidine-2,4(1H,3H)-dione]: in experiment [1] (setting [2]), the Dmax at 25 µM worked out at 84%. Besides, in experiment [1] (setting [3]), the remaining activity at 25 µM came out at 16%. In addition, in experiment [1] (setting [4]), the DC50 came out at 25 nM. Moreover, in the experiment with Fetal Hemoglobin (HbF), the Emax is 82% and the EC50 was 45 nM.
In the case of `O=C1CCN(c2cnn3ccc(CC4CCN(Cc5cccnc5)CC4)cc23)C(=O)N1` [Example 17, 1-(5-((1-(pyridin-3-ylmethyl)piperidin-4-yl)methyl)pyrazolo[1,5-a]pyridin-3-yl)dihydropyrimidine-2,4(1H,3H)-dione], the Dmax at 25 µM in experiment [1] (setting [2]) stood at 82%. Moreover, the remaining activity at 25 µM in experiment [1] (setting [3]) turned out to be 18%. The DC50 in experiment [1] (setting [4]) was 48 nM. In addition, in the experiment with Fetal Hemoglobin (HbF), the Emax amounted to 80% and the EC50 stood at 266 nM.
Regarding `CC(C)CN1CCN(C(C)c2ccn3ncc(N4CCC(=O)NC4=O)c3c2)CC1` (stereo not shown) [Example 345, 1-(5-(1-(4-isobutylpiperazin-1-yl)ethyl)pyrazolo[1,5-a]pyridin-3-yl)dihydropyrimidine-2,4(1H,3H)-dione], the Dmax at 25 µM in experiment [1] (setting [2]) was found to be 73%. Also, the remaining activity at 25 µM in experiment [1] (setting [3]) was determined as 27%. In addition, the DC50 in experiment [1] (setting [4]) is 191 nM.
For `CCN(C)C(=O)N1CC[C@@H](Cc2ccn3ncc(N4CCC(=O)NC4=O)c3c2)C[C@@H]1C` [Example 299, (2S,4R)-4-((3-(2,4-dioxotetrahydropyrimidin-1(2H)-yl)pyrazolo[1,5-a]pyridin-5-yl)methyl)-N-ethyl-N,2-dimethylpiperidine-1-carboxamide], the Dmax in experiment [1] (setting [5]) was 82%. Besides, the remaining activity in experiment [1] (HEK-293T, read-out: WIZ Amax) stood at 18%. Moreover, in experiment [1] (read-out: WIZ AC50; WIZ HiBit assay in 293T cells; 10-point, 5-fold dose response, highest concentration 25 μM, about 18 hours), the DC50 was 9 nM.
As for `O=C1CCN(c2cnn3ccc(CN4CCN(CCc5ccccc5)CC4)cc23)C(=O)N1` [Example 178], in experiment [1] (setting [2]), the Dmax at 25 µM amounted to 76%. The remaining activity at 25 µM in experiment [1] (setting [3]) came to 24%. Also, the DC50 in experiment [1] (setting [4]) came out at 48 nM.
In the same order, the values of `CC(C)(CN1CCC(Cc2ccn3ncc(N4CCC(=O)NC4=O)c3c2)CC1)C(F)(F)F` [Example 62, 1-(5-((1-(3,3,3-trifluoro-2,2-dimethylpropyl)piperidin-4-yl)methyl)pyrazolo[1,5-a]pyridin-3-yl)dihydropyrimidine-2,4(1H,3H)-dione] are 73%, 27% and 49 nM.
For the compound `C[C@H]1CN(Cc2ccn3ncc(N4CCC(=O)NC4=O)c3c2)CCN1CC1CCCO1` (stereo partly shown) [Example 209], the Dmax at 25 µM in experiment [1] (setting [2]) came out at 74%. Further, the remaining activity at 25 µM in experiment [1] (setting [3]) was determined as 26%. Also, the DC50 in experiment [1] (setting [4]) worked out at 380 nM.
With `C[C@H]1CN(Cc2ccn3ncc(N4CCC(=O)NC4=O)c3c2)CCN1CC1CCCC1` [Example 212], in experiment [1] (setting [2]), the Dmax at 25 µM is 84%. Moreover, the remaining activity at 25 µM in experiment [1] (setting [3]) stood at 16%. In addition, the DC50 in experiment [1] (setting [4]) was found to be 29 nM.
With `C[C@H]1CN(Cc2ccn3ncc(N4CCC(=O)NC4=O)c3c2)CCN1C[C@@H]1CCC(F)(F)C1` [Example 319, 1-(5-(((S)-4-(((R)-3,3-difluorocyclopentyl)methyl)-3-methylpiperazin-1-yl)methyl)pyrazolo[1,5-a]pyridin-3-yl)dihydropyrimidine-2,4(1H,3H)-dione], the Dmax at 25 µM in experiment [1] (setting [2]) came to 78%. In addition, the remaining activity at 25 µM in experiment [1] (setting [3]) was found to be 21%. The DC50 in experiment [1] (setting [4]) is 4 nM.
On the same counts, the results for `C[C@H]1C[C@H](Cc2ccn3ncc(N4CCC(=O)NC4=O)c3c2)CCN1CC1CCC(C)(C)CC1` [Example 149] are 90%, 10% and 0.4 nM.
As for `C[C@H]1CC(F)(Cc2ccn3ncc(N4CCC(=O)NC4=O)c3c2)CCN1CC1CCC(F)(F)CC1` (single isomer, unassigned) [Example 309], the “% degradation of WIZ (100 − Amax)” value in experiment [1] (100 − Amax, at 25 uM; 293T cells) stood at 62%. In experiment [1] (DMSO-normalized, curve-fitted percentage of WIZ-HiBit remaining at 25 uM; 293T cells), the “WIZ Amax” value is recorded as 38%. For the same compound, the DC50 in experiment [1] (setting [4]) came to 56 nM.
Take `O=C1CCN(c2cnn3ccc(CN4CCN5C(=O)COC[C@H]5C4)cc23)C(=O)N1` [Example 314, (R)-1-(5-((4-oxohexahydropyrazino[2,1-c][1,4]oxazin-8(1H)-yl)methyl)pyrazolo[1,5-a]pyridin-3-yl)dihydropyrimidine-2,4(1H,3H)-dione]: the Dmax at 25 µM in experiment [1] (setting [2]) was 34%. Further, the remaining activity at 25 µM in experiment [1] (setting [3]) came out at 66%. The DC50 in experiment [1] (setting [4]) was 2560 nM.
In the case of `C[C@H]1C[C@H](Cc2ccn3ncc(N4CCC(=O)NC4=O)c3c2)CCN1CC(F)(F)C(F)F` [Example 273, 1-(5-(((2S,4R)-2-methyl-1-(2,2,3,3-tetrafluoropropyl)piperidin-4-yl)methyl)pyrazolo[1,5-a]pyridin-3-yl)dihydropyrimidine-2,4(1H,3H)-dione], the Dmax in experiment [1] (setting [5]) was 78%. Moreover, the remaining activity in experiment [1] (HEK-293T, read-out: WIZ Amax) stood at 22%. For the same compound, the DC50 in experiment [1] (setting [4]) was determined as 40 nM.
On to `C[C@H]1CN(CC2CCCO2)CCN1Cc1ccn2ncc(N3CCC(=O)NC3=O)c2c1` (stereo partly shown) [Example 225], for which, in experiment [1] (setting [2]), the Dmax at 25 µM came out at 32%. The remaining activity at 25 µM in experiment [1] (setting [3]) came out at 68%. For the same compound, the DC50 in experiment [1] (setting [4]) was 1050 nM.
On the same counts, the results for `CC(C)(C1CCOCC1)N1CCN(Cc2ccn3ncc(N4CCC(=O)NC4=O)c3c2)CC1` [Example 182, 1-(5-((4-(2-(tetrahydro-2H-pyran-4-yl)propan-2-yl)piperazin-1-yl)methyl)pyrazolo[1,5-a]pyridin-3-yl)dihydropyrimidine-2,4(1H,3H)-dione] are 67%, 33% and 199 nM.
